Values quoted from earlier work in patent US10010648B2, “Transdermal delivery system” (Edixomed Limited, priority 2013, dated 2018).

Assays:
[1] = healthy 70 kg-adult

Structure (SMILES) | pKa | generally accepted safe dosage for topical anaesthesia [1] [mg]
C=CC(=O)O [acrylic acid] | 4.3 to 4.4 | –
COC(=O)[C@H]1[C@@H](OC(=O)c2ccccc2)C[C@@H]2CC[C@H]1N2C [cocaine] | – | 200
CCN(CC)CC(=O)Nc1c(C)cccc1C [lidocaine] | – | 750
CCCCNc1ccc(C(=O)OCCN(C)C)cc1 [tetracaine] | – | 50
